Test results: US6465428B1, “Pharmaceutical combinations based on dalfopristine and quinupristine, and on cefepime” (Aventis Pharma S.A., priority 1999, dated 2002)
In brackets after ≈: the same amount, converted by molar mass.

How the values were obtained:
[1] = tested on: MRSA clinical isolates (Staphylococcus aureus resistant to methicillin); experiment: MIC by broth macrodilution; format: cell-based; settings: for Range of MICs: 5 clinical isolates, 24 h at 35° C.
Experimental: A panel of 10 clinical isolates of MRSA (5 MLSB-susceptible (susceptible to Macrolide-Lincosamide-Streptogramin B) and 5 C-MLSB-resistant (Constitutively Resistant to Macrolide-Lincosamide-Streptogramin B)) originating from various geographical areas were tested for their susceptibilities to quinupristin/dalfopristin and to cefepime. Two of these isolates, namely AW7 and P8, were further used for animal experiments. These both were C-MLSB-resistant.
Bacteria were grown at 35° C., either in liquid cultures in tryptic soy broth (TSB; Difco Laboratories, Detroit, Mich.) or cation supplemented Mueller Hinton Broth (MHB; Difco), or on tryptic soy agar (TSA; Difco). All growth media were supplemented with 2% of sodium chloride to increase the expression of β-lactam resistance by MRSA. Bacterial stocks were kept at −70° C. in TSB, supplemented with 10% (vol/vol) glycerol.
The MIC (minimum inhibitory concentration) of the tested antibiotics was determined by a known broth macrodilution method (D. Amsterdam, Susceptibility testing of antimicrobials in liquid media, p.52-111, In V. Lorian ed., Antibiotics in Laboratory Medicine, Williams and Wilkins, Baltimore (1996)) with final inoculum of 10^5 to 10^6 CFU/ml. The MIC was defined as the lowest antibiotic concentration that inhibited visible bacterial growth after 24 hours of incubation at 35° C.

[2] = tested on: C-MLSB resistant MRSA AW7 and P8; experiment: Experimental endocarditis in rats; format: in vivo, rat; settings: i.v. pump simulating human kinetics, every 12 hours
Text: Sterile aortic vegetations were produced in female Wistar rats (weight 180 to 200 g) by the method of Heraiefet al., Infect Immunol., 37, 127-31 (1982), the disclosure of which is incorporated herein by reference in its entirety. Close by, an intravenous line containing a Silastic catheter was inserted into the jugular vein of a rat. The distal portion of the catheter was connected to a programmable pump device through a swivel, thus allowing the animals to move around their cage. The pump was set to deliver a volume of 0.2 ml of saline per hour to keep the line open until the onset of the therapy. In some experiments, quinupristine/dalfopristine was injected in combination with cefepime to the animals, with 2 infusion pumps, one to simulate human kinetics of quinupristine/dalfopristine and one to simulate human kinetics of cefepime. The 2 pumps were connected to a 2 way swivel and the drugs were infused into the animals via 2 independent jugular lines. No i.v. lines were placed in the control animals. Bacterial endocarditis was induced 24 hours after catheterization of the animals with 0.5 ml of saline containing 10^5 CFU of either of the test organisms. This inoculum was 10 times larger than the minimum inoculum producing endocarditis in 90% of the untreated rats.
Treatment was started 12 hours after bacterial challenge and lasted 3 or 5 days. The distribution of the antibiotics simulated the drug kinetics in the serum of humans. Quinupristine/dalfopristine was given to simulate treatment in humans with 7 mg/kg of the drug administered i.v. every 12 hours. Cefepime was given to simulate treatment in humans with 2 g of the drug given i.v. every 12 hours. This required, for the experiment, a total amount (mg/kg of body weight) per 12 hours of 38 mg/kg of quinupristine/dalfopristine and 142 mg/kg of cefepime.
The control rats were sacrificed at the onset of the treatment (i.e., 12 hours after inoculation) in order to measure both the frequency and the severity of valvular infection at the start of the therapy. Treated rats were sacrificed 12 hours after the low level of the last antibiotic dose of either test drug. At that time, no residual antibiotic could be detected in the blood. The valvular vegetation were dissected under sterile conditions, weighed, homogenized in 1 ml of saline, and serially diluted before being plated for colony counts. The number of colonies growing on the plates was determined after 48 hours of incubation at 35° C. Bacterial densities in the vegetations were expressed as log10 CFU/g of tissue. The minimum detection level was ≧2 log10 CFU/g of vegetation. For statistical comparisons of differences between the vegetation bacterial densities of various treatment groups, culture-negative vegetations were considered to contain 2 log10 CFU/g. […]

`CO/N=C(\C(=O)N[C@@H]1C(=O)N2C(C(=O)[O-])=C(C[N+]3(C)CCCC3)CS[C@H]12)c1csc(N)n1` [cefepime, (6R,7R)-7-(2-(2-aminothiazol-4-yl)-2(Z)-(methoxyimino)acetamido)-3-(1-methyl-pyrrolidiniomethyl)-3-cephem-4-carboxylate] was tested, and the “Range of MICs” value ([1]; MRSA C-MLSB-R) was over 64 mg/L, the “Range of MICs” value ([1]; MRSA MLSB-S) was over 64 mg/L and the MIC ([1]; Staphylococcus aureus, C-MLSB resistant MRSA AW7 and P8) was 64 µg/mL (≈ 133 µM). For the same compound, the infected rats/total rats ([2]; Strain AW-7) was 6/6, the “median log10 CFU/g of vegetation” value ([2]; Strain AW-7) was “(8.6) log10 CFU/g” and the infected rats/total rats ([2]; Strain P8) was 8/8. The “median log10 CFU/g of vegetation” value ([2]; Strain P8) was “(9.0) log10 CFU/g”.
